Results published in PMC4059401 (Xenobiotica; the fate of foreign compounds in biological …, 2013).

Assays:
CYP3A4 = CYP3A4 (Homo sapiens, UniProt P08684); assay: metabolite formation by recombinant CYP Supersomes, LC/MS; assay type: cell-based
CYP2D6 = CYP2D6 (Homo sapiens, UniProt P10635); assay: UV-visible spectral binding titration, purified enzyme
CYP1A2 = CYP1A2 (Homo sapiens, UniProt P05177); assay: metabolite formation by recombinant CYP Supersomes, LC/MS; assay type: cell-based
Chain of CYP1A2 (P16435 2-677): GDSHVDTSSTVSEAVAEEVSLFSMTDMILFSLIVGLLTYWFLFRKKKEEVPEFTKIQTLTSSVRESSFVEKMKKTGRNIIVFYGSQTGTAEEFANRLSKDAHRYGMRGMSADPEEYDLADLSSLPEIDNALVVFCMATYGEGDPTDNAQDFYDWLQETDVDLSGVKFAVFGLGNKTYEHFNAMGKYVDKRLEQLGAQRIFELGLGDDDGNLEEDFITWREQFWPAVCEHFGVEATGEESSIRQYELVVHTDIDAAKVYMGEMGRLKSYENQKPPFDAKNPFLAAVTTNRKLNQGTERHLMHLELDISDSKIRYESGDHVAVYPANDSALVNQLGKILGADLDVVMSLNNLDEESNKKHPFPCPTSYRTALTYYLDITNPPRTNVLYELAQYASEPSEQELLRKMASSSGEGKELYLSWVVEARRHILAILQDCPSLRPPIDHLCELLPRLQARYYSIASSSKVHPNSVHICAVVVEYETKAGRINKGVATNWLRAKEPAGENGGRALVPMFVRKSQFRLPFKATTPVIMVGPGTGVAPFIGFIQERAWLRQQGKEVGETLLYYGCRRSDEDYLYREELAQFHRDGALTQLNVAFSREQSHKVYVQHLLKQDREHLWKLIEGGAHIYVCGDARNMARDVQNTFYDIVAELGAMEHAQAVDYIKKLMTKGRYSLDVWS
Chain of CYP1A2 (P05177 2-516): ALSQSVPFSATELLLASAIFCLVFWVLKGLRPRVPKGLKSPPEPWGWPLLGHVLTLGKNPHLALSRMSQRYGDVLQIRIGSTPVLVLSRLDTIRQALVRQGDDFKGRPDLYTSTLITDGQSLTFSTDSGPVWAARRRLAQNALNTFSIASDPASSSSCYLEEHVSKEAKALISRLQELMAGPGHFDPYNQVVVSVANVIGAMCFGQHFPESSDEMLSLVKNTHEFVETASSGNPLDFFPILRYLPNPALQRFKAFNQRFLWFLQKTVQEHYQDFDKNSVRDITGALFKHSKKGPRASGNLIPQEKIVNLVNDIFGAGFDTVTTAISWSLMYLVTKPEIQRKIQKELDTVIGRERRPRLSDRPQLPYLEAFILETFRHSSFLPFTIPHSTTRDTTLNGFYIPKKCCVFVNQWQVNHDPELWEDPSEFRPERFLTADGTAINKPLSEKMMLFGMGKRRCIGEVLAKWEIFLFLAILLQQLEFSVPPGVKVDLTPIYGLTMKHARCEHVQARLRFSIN

Chain of CYP2D6 (P10635 whole entry): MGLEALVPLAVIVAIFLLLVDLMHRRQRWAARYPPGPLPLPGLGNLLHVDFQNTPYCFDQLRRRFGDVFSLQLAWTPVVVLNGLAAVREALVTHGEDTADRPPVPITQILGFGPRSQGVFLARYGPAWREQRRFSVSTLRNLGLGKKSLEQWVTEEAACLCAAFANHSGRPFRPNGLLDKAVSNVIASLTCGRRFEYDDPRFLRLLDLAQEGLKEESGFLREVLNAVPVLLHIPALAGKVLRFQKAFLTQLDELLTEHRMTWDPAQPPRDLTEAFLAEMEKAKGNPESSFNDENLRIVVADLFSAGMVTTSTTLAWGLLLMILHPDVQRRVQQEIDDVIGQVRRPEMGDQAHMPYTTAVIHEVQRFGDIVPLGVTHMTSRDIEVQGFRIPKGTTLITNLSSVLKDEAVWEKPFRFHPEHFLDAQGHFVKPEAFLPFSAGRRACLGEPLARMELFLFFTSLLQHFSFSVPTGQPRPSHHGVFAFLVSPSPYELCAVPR
Chain of CYP3A4 (P16435 2-677): as the sequence (P16435 2-677) above
Chain of CYP3A4 (P08684 2-503): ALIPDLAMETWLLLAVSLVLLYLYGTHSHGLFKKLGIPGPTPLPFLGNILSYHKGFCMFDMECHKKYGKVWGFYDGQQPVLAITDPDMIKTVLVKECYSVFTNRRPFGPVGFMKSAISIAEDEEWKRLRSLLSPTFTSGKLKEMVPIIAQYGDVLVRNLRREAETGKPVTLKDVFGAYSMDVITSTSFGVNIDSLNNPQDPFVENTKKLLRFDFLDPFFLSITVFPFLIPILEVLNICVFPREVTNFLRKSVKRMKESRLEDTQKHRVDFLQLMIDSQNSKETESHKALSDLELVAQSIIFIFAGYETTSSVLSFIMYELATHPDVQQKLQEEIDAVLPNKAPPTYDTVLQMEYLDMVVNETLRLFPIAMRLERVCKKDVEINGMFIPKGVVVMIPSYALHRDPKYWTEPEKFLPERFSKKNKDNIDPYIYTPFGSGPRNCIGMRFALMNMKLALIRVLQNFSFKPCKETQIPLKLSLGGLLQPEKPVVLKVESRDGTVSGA

Question: With `CCN(CC)CCNC(=O)c1cc(Cl)c(N)cc1OC` [Metoclopramide, 4-amino-5-chloro-N-(2-(diethylamino)ethyl)-2-methoxybenzamide] as the compound, how does the “metabolite formation by recombinant CYP Supersomes, LC/MS” value (CYP3A4) read?
Answer: The value was “All three monooxygenation products (M4a, M4b, M4c) were formed by CYP3A4 and CYP2D6”.

Question: What about the Kd (CYP2D6) of the same compound?
Answer: Its Kd is 9.56 ± 1.09 µM.

Question: What about the “metabolite formation by recombinant CYP Supersomes, LC/MS” value (CYP1A2) of the same compound?
Answer: Its value is “CYPs 1A2, 2C9, 2C19, and 3A4 also metabolized metoclopramide”.
